# Experimental data from patent publication US7208502B2, “Methods of treating conditions associated with an Edg-3 receptor” (Maniv Energy Capital, priority 2002, dated 2007).
# Tests used:
# [1] = molecular target: T1, Dopamine D2L (Homo sapiens, UniProt P14416); test: Radioligand binding assay, 3H Spiperone; details: 10 μM; significance criteria ≧50% of max stimulation or inhibition
# T1 construct: expressed in transfected cells; host or cells: CHO cells
# Description: (§1) In order to test the selectivity of compounds, various enzyme assays as well as radioligand binding assays were performed using numerous non-Edg receptor targets as listed below.
# (§2) A radioligand binding assay was performed using adrenergic α1 according to the method of Greengrass and Bremner 1979, Eur. J. Pharmacol. 55:323–326. A radioligand binding assay was performed using adrenergic α2 according to the method of Boyajian and Leslie, 1987, J. Pharmacol. Exp. Ther. 241:1092–1098. A radioligand binding assay was performed using adrenergic β according to the method of Feve et al., 1994, Proc. Natl. Acad. Sci. USA 91:5677–5681. A radioligand binding assay was performed using angiotensin AT2 according to the method of Whitebread et al., 1991, Biochem. Biophys. Res. Comm. 181:1365–1371. A radioligand binding assay was performed using calcium channel Type L, dihydropyridine according to the method of Ehlert et al., 1982, Life Sci. 30:2191–2202. A radioligand binding assay was performed using dopamine D2L according to the method of Bunzo et al., 1988, Nature 336:783–787. A radioligand binding assay was performed using endothelin ETA according to the method of Mihara et al., 1994, J. Phrmacol. Exp Ther. 268:1122–1127. A radioligand binding assay was performed using histamine H1 Central according to the method of Hill et al., 1978, J. Neurochem. 31:997–1004. […]
# (§3) Quantitation Method: Radioligand Binding […]
# [2] = molecular target: T2, Endothelin ETA (Homo sapiens, UniProt P25101); test: Radioligand binding assay, 125I Endothelin; details: 10 μM; significance criteria ≧50% of max stimulation or inhibition
# T2 construct: expressed in transfected cells; host or cells: CHO cells
# T2 sequence (P25101 21-427): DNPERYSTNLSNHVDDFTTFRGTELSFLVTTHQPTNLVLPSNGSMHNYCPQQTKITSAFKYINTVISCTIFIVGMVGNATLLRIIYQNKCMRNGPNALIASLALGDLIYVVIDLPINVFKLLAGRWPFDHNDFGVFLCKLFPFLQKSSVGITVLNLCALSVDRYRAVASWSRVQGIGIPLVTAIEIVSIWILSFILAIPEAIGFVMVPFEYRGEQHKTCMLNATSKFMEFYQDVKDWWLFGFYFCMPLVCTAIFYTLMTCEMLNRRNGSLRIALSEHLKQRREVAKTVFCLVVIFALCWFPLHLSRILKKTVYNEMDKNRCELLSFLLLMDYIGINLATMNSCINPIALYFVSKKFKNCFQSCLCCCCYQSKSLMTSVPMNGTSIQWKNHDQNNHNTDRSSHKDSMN
# Description: as §1, §2, §3
# T1 sequence (P14416 whole entry): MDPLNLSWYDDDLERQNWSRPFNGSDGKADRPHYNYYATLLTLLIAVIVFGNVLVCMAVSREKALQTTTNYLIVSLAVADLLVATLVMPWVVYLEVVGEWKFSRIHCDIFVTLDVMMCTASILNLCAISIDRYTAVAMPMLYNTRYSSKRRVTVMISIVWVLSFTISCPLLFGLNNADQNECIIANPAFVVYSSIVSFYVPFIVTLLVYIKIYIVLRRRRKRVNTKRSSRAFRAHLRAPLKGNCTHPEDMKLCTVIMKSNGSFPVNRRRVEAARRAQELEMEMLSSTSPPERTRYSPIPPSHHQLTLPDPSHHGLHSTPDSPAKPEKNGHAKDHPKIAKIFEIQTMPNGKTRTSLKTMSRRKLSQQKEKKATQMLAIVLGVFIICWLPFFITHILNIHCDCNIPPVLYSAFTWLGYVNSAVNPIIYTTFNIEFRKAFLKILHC
smiles,measurement,setting,value
"Cc1c(-c2ccccc2)nc2ccccc2c1C(=O)NCc1ccc(F)cc1 [Compound 101, 3-methyl-2-phenyl-quinoline-4-carboxylic acid 4-fluoro-benzylamide]","activity in standard binding assay, Dopamine D2L",[1],no activity
same,"activity in standard binding assay, Endothelin ETA",[2],no activity
